These results are taken from paper PMC6050537, “Inhibition of low-density lipoprotein receptor degradation with a cyclic peptide that disrupts the homodimerization of IDOL E3 ubiquitin ligase” (Chemical Science, 2018).

Data set [1] is described as follows: Solubility (qualitative remarks). The data set is classed as physicochemical.
The test system of a further data set is HepG2 cells. The conditions noted are these: concentrations up to 100 μM, 72 h. As for the experimental part: (§1) Cell viability was assessed using the CellTiter-Glo 2.0 assay (Promega) according to the manufacturer's instructions. Briefly, cells were plated at a density of 3.3 × 10^4 cells per well in a 96 well plate and incubated overnight (37 °C, 5% CO2). Cells were treated with increasing concentrations of inhibitor and incubated in lipoprotein depleted serum for 72 h (37 °C, 5% CO2). The plate was equilibrated to room temperature for 30 min prior to the addition an equal volume of CellTiter-Glo 2.0 (Promega) reagent to media. The contents were mixed for 2 min on an orbital shaker to induce cell lysis and the plate incubated at room temperature for 10 min prior to the detection of a luminescent signal.
(§2) Supplementary Figure 11. Cellular viability following peptide treatment. The viability of
(§3) (a ) He pG2 a nd (b ) DIDOL He p G2 cells was determined following treatment with increasing
(§4) concentrations of TAT-RINGPe p2 and TAT-ScramPep (100 µM). […]

Another data set deals with ΔIDOL HepG2 cells. Conditions: concentrations up to 100 μM, 72 h. How it is done:
as §1, §2, §3, §4

The target of data set [2] is T1, 6× His-tagged, full-length IDOL (Homo sapiens, UniProt Q8WY64).
T1 construct: Full length IDOL (1–445) was cloned with a TEV cleavable N-terminal 6xHis tag; made in house; host or cells: Spodoptera frugiperda Sf21 (baculovirus, pFastbac1)
T1 sequence (Q8WY64 1-445): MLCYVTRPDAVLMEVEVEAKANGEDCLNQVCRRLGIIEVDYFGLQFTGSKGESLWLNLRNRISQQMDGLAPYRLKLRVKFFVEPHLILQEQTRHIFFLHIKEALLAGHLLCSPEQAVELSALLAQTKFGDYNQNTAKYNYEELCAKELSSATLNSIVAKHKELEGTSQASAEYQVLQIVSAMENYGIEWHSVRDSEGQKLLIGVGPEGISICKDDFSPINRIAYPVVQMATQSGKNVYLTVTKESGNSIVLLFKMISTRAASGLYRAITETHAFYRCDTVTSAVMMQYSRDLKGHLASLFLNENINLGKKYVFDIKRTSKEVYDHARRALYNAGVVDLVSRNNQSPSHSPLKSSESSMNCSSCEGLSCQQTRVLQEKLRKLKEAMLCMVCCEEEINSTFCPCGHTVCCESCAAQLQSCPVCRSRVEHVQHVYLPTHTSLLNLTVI
Put plainly: Surface plasmon resonance (SPR) affinity for IDOL. The conditions noted are these: for Kd: SPR, immobilized full-length His-IDOL, saturation at highest concentrations not observed; for binding to IDOL by SPR: linear counterparts of the cyclic peptides. The data set is classed as binding. From the text:
We initially assessed the affinity of the 6 selected cyclic peptides for IDOL by surface plasmon resonance (SPR). Although saturation at the highest concentrations was not observed, due to hydrophobic effects, Kd values could be determined for five peptides (Table 1). […] The hit rate for our IDOL screen is in line with that for previous SICLOPPS screens.[21],[25] It should be noted that although cyclo-CTIFLL and cyclo-CTLILF contain the same amino acids, changing the order in which these are arranged results in activity loss.
All measurements were performed on a Biacore S200 (GE healthcare) using running buffer 10 mM HEPES, 300 mM NaCl, 1 mM TCEP, 0.05% Tween 20 and 4% DMSO at pH 8.0. In brief, 6× His-tagged, full-length IDOL was immobilized on a NTA-chip (Xantec), to a final level of ∼6000 RU. The chip was pre-loaded with Ni^2+ to facilitate efficient capture of His-tagged protein onto the chip. The activity of the immobilized protein was confirmed using a reference compound.
Supplementary Figure 2. […] Saturation of binding was not observed due to the hydrophobic nature of the peptides
(1 picture or pasted object on this page, not shown here)
In general terms: Surface plasmon resonance follows binding to a sensor surface in real time, without labels.

The next data set deals with T2, RING domain of IDOL.
T2 construct: IDOL RING domain (G356-I445) was expressed as TEV cleavable N-terminal HN6-Lysine-Tag; HN6-Lysine-Tag (TEV-cleavable) (N); made in house; host or cells: E. coli (pET vector)
Put plainly: 1H 15N HSQC NMR binding to RING domain. From the text:
(§5) The lead candidates, cyclo-CTIFLL and cyclo-CFFLYT, were next analyzed for binding to the RING domain of IDOL by ^1H ^15N HSQC NMR. We also assessed the binding of each peptide to the FERM domain of IDOL as a negative control. […] It should be noted that the 3 residues affected by cyclo-CFFLYT (named RINGPep1) form part of the PPI interface in the crystal structure of the homodimerized RING domains of IDOL (Fig. 1c and ESI Fig. 6 ^†).[15] Furthermore, mutation of V431R coupled with a L433R mutation is known to result in a dimer deficient IDOL.[15]
(§6) ^15N-labeled RING and FERM domains were prepared for NMR experiments by buffer exchange using Amicon Ultra-4 Centrifugal Filter Units with 3 kDa molecular weight cut-off membranes. Buffer conditions for the NMR studies were 50 mM TRIS-d11 pH 7.5, 200 mM NaCl, 3 mM TCEP, 10% (v/v) D2O for the RING domain and 25 mM TRIS-d11, 25 mM NaPi, pH 7.5, 300 mM NaCl, 3 mM TCEP, 10% (v/v) D2O for the FERM domain. The protein concentrations were 80 μM and 70 μM, for the RING and FERM domain respectively. Two-dimensional NMR SOFAST-HMQC titration experiments were carried out on a Bruker 600 MHz spectrometer equipped with a cryoprobe. […]

The subject of another data set is T3, FERM domain of IDOL.
T3 construct: made in house; host or cells: E. coli BL21
Put plainly: 1H 15N HSQC NMR binding to FERM domain (negative control).
Text: as §5, §6

The target in another data set is T4, 6× His IDOL (Homo sapiens, UniProt Q8WY64).
T4 construct: Full length IDOL (1–445) was cloned with a TEV cleavable N-terminal 6xHis tag; made in house; host or cells: Spodoptera frugiperda Sf21 (baculovirus, pFastbac1)
T4 sequence (Q8WY64 1-445): T1 sequence (Q8WY64 1-445)
In words: Microscale thermophoresis (MST) binding to IDOL. The conditions noted are these: full length His-IDOL (44 nM). From the text:
We sought to improve the affinity of RINGPep1 prior to assessing its effect in cells. We used alanine-scanning to identify residues that were critical to the activity of RINGpep1; we constructed 5 SICLOPPS plasmids where each amino acid (except the set cysteine, which is required for intein splicing) was replaced with alanine. These plasmids were transformed into the IDOL RTHS and assessed for disruption of IDOL homodimerization by drop-spotting. […] We therefore synthesized a handful of RINGPep1 analogues with the second position containing a non-natural phenylalanine analogue. After purification, the affinity of each of these compounds for IDOL was assessed by MST. […] The ability of RINGpep2 to disrupt IDOL homodimerization was assessed in vitro using a competition assay in which increasing concentrations of IDOL were titrated into a 45 nM solution of dye-labelled IDOL. Binding of non-labelled IDOL to dye-labelled IDOL will be observed in the MST signal, allowing the Kd of IDOL homodimerization to be quantified. Using this approach, we measured a Kd of 2.9 ± 0.1 μM for IDOL homodimerization. The experiment was repeated in the presence of RINGpep2 (100 μM), with the expectation that the apparent Kd of IDOL homodimerization would increase in the presence of an inhibitor of IDOL homodimerization.
MST was performed on a Monilith NT.115 system (Nano Temper Technologies, DE). […]
For orientation: MST reads how a fluorescent partner responds to local heating, with and without ligand.

Read-outs that look alike come from different tables or passages of the source. Residues, ends and D or L forms follow the SMILES beside them.

For the molecule `CC(C)C[C@@H]1NC(=O)[C@H](CC2CCCCC2)NC(=O)[C@H](Cc2ccccc2)NC(=O)[C@H](CS)NC(=O)[C@H]([C@@H](C)O)NC(=O)[C@H](Cc2ccc(O)cc2)NC1=O` [RINGPep2, cyclo-CF-Cha-LYT] (HELM PEPTIDE1{C.F.[Cha].L.Y.T}$PEPTIDE1,PEPTIDE1,1:R1-6:R2$$$V2.0), the “solubility in the assay buffer” value in data set [1] (autoubiquitination assay buffer) is “poor solubility”. Further, the water solubility entry in data set [1] (compared with the 3-(1-naphthyl)-L-alanine analogue) is “marginally better”.

`CC(C)C[C@@H]1NC(=O)[C@H](CC2CCCCC2)NC(=O)[C@H](Cc2ccccc2)NC(=O)[C@H](CSSC[C@H](N)C(=O)NCC(=O)N[C@@H](CCCNC(=N)N)C(=O)N[C@@H](CCCCN)C(=O)N[C@@H](CCCCN)C(=O)N[C@@H](CCCNC(=N)N)C(=O)N[C@@H](CCCNC(=N)N)C(=O)N[C@@H](CCC(N)=O)C(=O)N[C@@H](CCCNC(=N)N)C(=O)N[C@@H](CCCNC(=N)N)C(=O)N[C@@H](CCCNC(=N)N)C(=O)N2CCC[C@H]2C(=O)N2CCC[C@H]2C(=O)N[C@@H](CCC(N)=O)C(=O)O)NC(=O)[C@H]([C@@H](C)O)NC(=O)[C@H](Cc2ccc(O)cc2)NC1=O` [Tat-RINGPep2]: the toxicity entry in the data set with HepG2 cells and in the data set with ΔIDOL HepG2 cells was “no toxicity” in each case.

Take `CC(C)C[C@@H]1NC(=O)[C@H](Cc2ccc(O)cc2)NC(=O)[C@H](CSSC[C@H](N)C(=O)NCC(=O)N[C@@H](CCCNC(=N)N)C(=O)N[C@@H](CCCCN)C(=O)N[C@@H](CCCCN)C(=O)N[C@@H](CCCNC(=N)N)C(=O)N[C@@H](CCCNC(=N)N)C(=O)N[C@@H](CCC(N)=O)C(=O)N[C@@H](CCCNC(=N)N)C(=O)N[C@@H](CCCNC(=N)N)C(=O)N[C@@H](CCCNC(=N)N)C(=O)N2CCC[C@H]2C(=O)N2CCC[C@H]2C(=O)N[C@@H](CCC(N)=O)C(=O)O)NC(=O)[C@H](CC2CCCCC2)NC(=O)[C@H]([C@@H](C)O)NC(=O)[C@H](Cc2ccccc2)NC1=O` [Tat-ScramPep]: the toxicity result in the data set on HepG2 cells and in the data set on ΔIDOL HepG2 cells was “no toxicity” in each case.

With `CC[C@H](C)[C@@H]1NC(=O)[C@H](CC(C)C)NC(=O)[C@H](Cc2ccccc2)NC(=O)[C@H](CC(C)C)NC(=O)[C@H](CCCNC(=N)N)NC(=O)[C@H](CS)NC1=O` [cyclo-CRLFLI] (HELM PEPTIDE1{C.R.L.F.L.I}$PEPTIDE1,PEPTIDE1,1:R1-6:R2$$$V2.0), in data set [2] (read-out: Kd), the Kd (in general, the concentration at which binding is half-saturated) is roughly 3000 µM.

Take `CC[C@H](C)[C@@H]1NC(=O)[C@H](C(C)C)NC(=O)[C@H](C(C)C)NC(=O)[C@H](CO)NC(=O)[C@H](CS)NC(=O)[C@H](CC(C)C)NC1=O` [cyclo-CSVVIL] (HELM PEPTIDE1{C.S.V.V.I.L}$PEPTIDE1,PEPTIDE1,1:R1-6:R2$$$V2.0): the Kd in data set [2] (read-out: Kd) is roughly 1000 µM.

Regarding `CC[C@H](C)[C@@H]1NC(=O)[C@H]([C@@H](C)O)NC(=O)[C@H](CS)NC(=O)[C@H](CC(C)C)NC(=O)[C@H](CC(C)C)NC(=O)[C@H](Cc2ccccc2)NC1=O` [cyclo-CTIFLL] (HELM PEPTIDE1{C.T.I.F.L.L}$PEPTIDE1,PEPTIDE1,1:R1-6:R2$$$V2.0), the Kd in data set [2] (read-out: Kd) was determined as 20.9 ± 11 µM. For the same molecule, the “chemical shift changes, RING domain of IDOL” value in the data set with RING domain of IDOL is “did not observe any chemical shift changes”. For the same molecule, the “chemical shift changes, FERM domain of IDOL” value in the data set with FERM domain of IDOL was “did not observe any chemical shift changes”.

For the molecule `CC[C@H](C)[C@@H]1NC(=O)[C@H](CC(C)C)NC(=O)[C@H]([C@@H](C)O)NC(=O)[C@H](CS)NC(=O)[C@H](Cc2ccccc2)NC(=O)[C@H](CC(C)C)NC1=O` [cyclo-CTLILF] (HELM PEPTIDE1{C.T.L.I.L.F}$PEPTIDE1,PEPTIDE1,1:R1-6:R2$$$V2.0), the Kd in data set [2] (read-out: Kd) was roughly 10000 µM.

For `CC[C@H](C)[C@@H]1NC(=O)[C@H](Cc2ccccc2)NC(=O)[C@H](C(C)C)NC(=O)[C@H]([C@@H](C)O)NC(=O)[C@H](CS)NC(=O)[C@H]([C@@H](C)CC)NC1=O` [cyclo-CTVFII] (HELM PEPTIDE1{C.T.V.F.I.I}$PEPTIDE1,PEPTIDE1,1:R1-6:R2$$$V2.0), the Kd result in data set [2] is given as “No activity”.

Take “CFFLYT [linear counterpart of cyclo-CFFLYT]”: the “binding to IDOL by SPR” value in data set [2] is reported as “no binding observed”.

As for “CTIFLL [linear counterpart of cyclo-CTIFLL]”, the “binding to IDOL by SPR” value in data set [2] is “no binding observed”.

For the molecule cyclo-CYLFT[Cha] [ScramPep], the “binding to IDOL by MST” value on 6× His IDOL is on record as “did not bind”.
